Read-outs that look alike come from different tables or passages of the source.
Tests used:
Colo 205 (Colon Cancer) [1] = assay: NCI five-dose SRB assay; format: cell-based; details: Homo sapiens, 48 h
HT29 (Colon Cancer) = assay: NCI five-dose SRB assay; format: cell-based; details: Homo sapiens, HT-29, 48 h
[2] = system: MDA-MB-231/ATCC (Breast Cancer); assay: NCI five-dose SRB assay; format: cell-based; details: Homo sapiens, 48 h
MCF-7 cells [3] = assay: PARP-1 inhibition in vitro: MTT after Fluzoparib pretreatment; format: cell-based, human; details: Homo sapiens, MCF7; MCF-7, compound alone (no preincubation), 72 h MTT; read-out: IC50
Procedure: Taking into account the above data, PARP1 inhibition in vitro was investigated using pretreatment of the MCF-7 cells with the Fluzoparib, a potent PARP1 inhibitor in the non-toxic concentrations of 5, 10, and 15 µM. It had no significant growth inhibitory effect in such doses, and a reduction of cell viability by only 10–12% was observed compared to control (non-treated) cells. […] The preincubation step was used to bind PARP1 molecules, which were the potential targets of the studied compounds and to test if it would affect the activity of 3 and 4. […] The preincubation of cells with the Fluzoparib decreased their sensitivity to the compound 3 treatment in a less pronounced manner, compared with the effect of the compound 4. […] Changes in structure of the started compound 3 may cause an enhancement of the ability of molecule 4 to inhibit the activity of PARP1.
To determine PARP inactivation, the MCF-7 cells were pretreated for 2 h in the non-toxic concentrations of 5, 10, 15 µM of the Fluzoparib (Med Chem Express, Monmouth Junction, NJ, USA), a potent PARP1 inhibitor used in the chemotherapy. Then, the medium was removed and increasing doses of the compounds 3 and 4 were added and cells were incubated for the next 72 h. The IC50 values of compounds were determined by the MTT assay, as described.

ACHN (Renal Cancer) = assay: NCI five-dose SRB assay; format: cell-based; details: Homo sapiens, 48 h
RXF 393 (Renal Cancer) = assay: NCI five-dose SRB assay; format: cell-based; details: Homo sapiens, 48 h
[4] = system: NCI-H460 (Non-Small Cell Lung Cancer); assay: NCI five-dose SRB assay; format: cell-based; details: Homo sapiens, 48 h
OVCAR-4 (Ovarian Cancer) = assay: NCI five-dose SRB assay; format: cell-based; details: Homo sapiens, 48 h
[5] = system: Prostate Cancer cell lines (MG_MID); assay: NCI five-dose SRB assay; format: cell-based; details: Homo sapiens, 48 h
OVCAR-8 (Ovarian Cancer) = assay: NCI five-dose SRB assay; format: cell-based; details: Homo sapiens, 48 h
SNB-19 (CNS Cancer) = assay: NCI five-dose SRB assay; format: cell-based; details: Homo sapiens, 48 h
[6] = system: Renal Cancer cell lines (MG_MID); assay: NCI five-dose SRB assay; format: cell-based; details: Homo sapiens, 48 h
OVCAR-3 (Ovarian Cancer) = assay: NCI five-dose SRB assay; format: cell-based; details: Homo sapiens, 48 h
[7] = system: Ovarian Cancer cell lines (MG_MID); assay: NCI five-dose SRB assay; format: cell-based; details: Homo sapiens, 48 h
HCT-116 (Colon Cancer) = assay: NCI five-dose SRB assay; format: cell-based; details: Homo sapiens, 48 h
[8] = system: NCI-H322M (Non-Small Cell Lung Cancer); assay: NCI five-dose SRB assay; format: cell-based; details: Homo sapiens, 48 h
MCF-7 (breast) = assay: MTT assay of cell viability; details: Homo sapiens, MCF7, 72 h, MCF-7; 72 h of incubation, M ± SD
[9] = system: HCT-116 p53 (−/−) colon cancer cells; assay: MTT assay of cell viability; details: Homo sapiens, HCT-116, 72 h
Description: The cell lines used in our work were kindly provided by a Collection at the Institute of Molecular Biology and Genetics, National Academy of Sciences of Ukraine (Kyiv, Ukraine).

HCC-2998 (Colon Cancer) = assay: NCI five-dose SRB assay; format: cell-based; details: Homo sapiens, 48 h
MOLT-4 (Leukemia) = assay: NCI five-dose SRB assay; format: cell-based; details: Homo sapiens, 48 h
Colo 205 (Colon Cancer) [10] = assay: NCI one-dose SRB assay; details: 10 μM, 48 h
[11] = system: full panel of human tumor cell lines (MG_MID); assay: NCI five-dose SRB assay, full panel; format: cell-based
Procedure: Using absorbance measurements [time zero (Tz), control growth in the absence of drug (C), and test growth in the presence of drug (Ti)], the percentage growth was calculated for each drug concentration. Percentage growth inhibition was calculated as:
Dose response parameters (GI50, TGI, LC50) were calculated for each compound. […] The drug concentration resulting in total growth inhibition (TGI) was calculated from Ti = Tz. […] Values were calculated for each of these parameters if the level of activity was reached; however, if the effect was not reached or was excessive, the value for that parameter was expressed as more or less than the maximum or minimum concentration tested.

CAKI-1 (Renal Cancer) = assay: NCI five-dose SRB assay; format: cell-based; details: Homo sapiens, 48 h
PC-3 (Prostate Cancer) = assay: NCI five-dose SRB assay; format: cell-based; details: Homo sapiens, 48 h
SK Mel-2 (Melanoma) = assay: NCI one-dose SRB assay; details: 10 μM, 48 h
[12] = system: CNS Cancer cell lines (MG_MID); assay: NCI five-dose SRB assay; format: cell-based; details: Homo sapiens, 48 h
MALME-3M (Melanoma) = assay: NCI five-dose SRB assay; format: cell-based; details: Homo sapiens, 48 h
K-562 (Leukemia) = assay: NCI five-dose SRB assay; format: cell-based; details: Homo sapiens, K562, 48 h
HCT-15 (Colon Cancer) = assay: NCI one-dose SRB assay; details: 10 μM, 48 h
Procedure: Tested compounds were added to the culture at a single concentration (10^−5 M) and the cultures were incubated for 48 h. End point determinations were made with a protein binding dye, Sulphorhodamine B (SRB). […] The percentage growth was evaluated spectrophotometrically versus controls not treated with test agents.

MCF-7 cells [13] = assay: Chemical synthetic lethality: MTT after preincubation with MGMT inhibitor Lomeguatrib; format: cell-based, human; details: for IC50: Homo sapiens, MCF7, 72 h MTT
T-47D (Breast Cancer) = assay: NCI five-dose SRB assay; format: cell-based; details: Homo sapiens, T47D, 48 h
A549 (lung) = assay: MTT assay of cell viability; details: Homo sapiens, A549, 72 h

## CCOC(=O)c1ccc(NC(=O)CSC(CC(=O)c2sc(Nc3ccccn3)nc2C)c2ccccc2F)cc1 (centres unmarked) [Compound 4, Ethyl 4-[[2-[1-(2-Fluorophenyl)-3-[4-methyl-2-(2-pyridylamino)thiazol-5-yl]-3-oxopropyl]sulfanylacetyl]amino]benzoate]
Colo 205 (Colon Cancer) [1]
  GI50: > 100 µM
HT29 (Colon Cancer)
  GI50: 58.3 µM
[2]
  GI50: 19.3 µM
MCF-7 cells [3]
  IC50: 3.53 µM
ACHN (Renal Cancer)
  GI50: 45.6 µM
RXF 393 (Renal Cancer)
  GI50: 2.59 µM
[4]
  GI50: 31.2 µM
OVCAR-4 (Ovarian Cancer)
  GI50: 66.1 µM
[5]
  GI50: 45.5 µM
OVCAR-8 (Ovarian Cancer)
  GI50: 53.6 µM
SNB-19 (CNS Cancer)
  GI50: 36.9 µM
[6]
  GI50: 33.4 µM
OVCAR-3 (Ovarian Cancer)
  GI50: 31.7 µM
[7]
  GI50: 41.1 µM
HCT-116 (Colon Cancer)
  GI50: 23 µM
[8]
  GI50: 25.4 µM
MCF-7 (breast)
  IC50: 2.79 ± 1.31 µM
[9]
  IC50: 3.43 ± 0.9 µM
HCC-2998 (Colon Cancer)
  GI50: 23.1 µM
MOLT-4 (Leukemia)
  GI50: 32.2 µM
Colo 205 (Colon Cancer) [10]
  Growth %: −34.08%
[11]; Homo sapiens, RPMI-8226, NCI-H226, SNB-75, SF 539, M14, MDA-MB-435, UO-31, RXF 393, MDA-MB-468, read-out: active concentration range (GI50) towards most sensitive lines
  GI50: 2.52 to 8.29 µM
[11]; Homo sapiens, full panel MG_MID (average GI50), 48 h, read-out: GI50
  GI50: 31.7 µM
[11]; Homo sapiens, full panel, mainly
  LC50 (concentration giving 50% net tumour cell kill): > 100 µM
[11]; full panel, mainly
  TGI: > 100 µM
CAKI-1 (Renal Cancer)
  GI50: 11.5 µM
PC-3 (Prostate Cancer)
  GI50: 23.8 µM
SK Mel-2 (Melanoma)
  Growth %: −31.22%
[12]
  GI50: 32.7 µM
MALME-3M (Melanoma)
  GI50: 25.4 µM
K-562 (Leukemia)
  GI50: 30.4 µM
HCT-15 (Colon Cancer)
  Growth %: −42.04%
MCF-7 cells [13]; MCF-7, 3 h preincubation with Lomeguatrib, read-out: IC50 with the MGMT inhibitor
  IC50: 0.72 µM
MCF-7 cells [13]; MCF-7, compound alone, read-out: IC50
  IC50: 2.28 µM
MCF-7 cells [13]; MCF-7
  enhancement of sensitivity by Lomeguatrib preincubation: 3 times
MCF-7 cells [13]; MCF-7, compared with individual treatments
  combination effect with the MGMT inhibitor: synergistic activity
T-47D (Breast Cancer)
  GI50: 18 µM
A549 (lung)
  IC50: 8.05 ± 0.24 µM

— paper PMC9570594, “Development of Novel Pyridine-Thiazole Hybrid Molecules as Potential Anticancer Agents” (Molecules, 2022)
